Structures are written as SMILES.

In the experiment the test system is microfilariae of Dirofilaria immitis. In words: Dirofilaria immitis, Microfilaria (DiMF) In vitro Assay. To be noted: 72 h, read-out: DiMF Minimum Effective Dose (MED), approximately 72 hours incubation, microfilariae assessed for survival or paralysis. Type of experiment: cell-based.

Consider `Cc1cn(Cc2ccc(C[C@H]3OC(=O)[C@H](CC(C)C)N(C)C(=O)[C@@H](C)OC(=O)[C@H](CC(C)C)N(C)C(=O)[C@@H](Cc4ccccc4)OC(=O)[C@H](CC(C)C)N(C)C(=O)[C@@H](C)OC(=O)[C@H](CC(C)C)N(C)C3=O)cc2)c(C)n1` [Example 8-5, (3S,6R,9S,12R,15S,18R,21S,24R)-6-benzyl-18-(4-((2,4-dimethyl-1H-imidazol-1-yl)methyl)benzyl)-3,9,15,21-tetraisobutyl-4,10,12,16,22,24-hexamethyl-1,7,13,19-tetraoxa-4,10,16,22-tetraazacyclotetracosan-2,5,8,11,14,17,20,23-octaone], for which the minimal effective concentration was in the range of 0.01 to 0.1 µM.
In the case of `CC(C)C[C@H]1C(=O)O[C@H](Cc2ccc(Cn3ccc(C4CCCC4)n3)cc2)C(=O)N(C)[C@@H](CC(C)C)C(=O)O[C@H](C)C(=O)N(C)[C@@H](CC(C)C)C(=O)O[C@H](Cc2ccccc2)C(=O)N(C)[C@@H](CC(C)C)C(=O)O[C@H](C)C(=O)N1C` [Example 2-88, (3S,6R,9S,12R,15S,18R,21S,24R)-6-benzyl-18-(4-((3-cyclopentyl-1H-pyrazol-1-yl)methyl)benzyl)-3,9,15,21-tetraisobutyl-4,10,12,16,22,24-hexamethyl-1,7,13,19-tetraoxa-4,10,16,22-tetraazacyclotetracosan-2,5,8,11,14,17,20,23-octaone] it was 0.01 to 0.1 µM.
Take `Cc1c(CO)nn(Cc2ccc(C[C@H]3OC(=O)[C@H](CC(C)C)N(C)C(=O)[C@@H](C)OC(=O)[C@H](CC(C)C)N(C)C(=O)[C@@H](Cc4ccc(Cn5nc(CO)c(C)c5C(F)(F)F)cc4)OC(=O)[C@H](CC(C)C)N(C)C(=O)[C@@H](C)OC(=O)[C@H](CC(C)C)N(C)C3=O)cc2)c1C(F)(F)F` [Example 1b-124, (3S,6R,9S,12R,15S,18R,21S,24R)-6,18-bis(4-((3-(hydroxymethyl)-4-methyl-5-(trifluoromethyl)-1H-pyrazol-1-yl)methyl)benzyl)-3,9,15,21-tetraisobutyl-4,10,12,16,22,24-hexamethyl-1,7,13,19-tetraoxa-4,10,16,22-tetraazacyclotetracosan-2,5,8,11,14,17,20,23-octaone]: the minimal effective concentration is 0.01 to 0.1 µM.
In the case of `CC(C)C[C@H]1C(=O)O[C@H](Cc2ccc(Cn3cnnn3)cc2)C(=O)N(C)[C@@H](CC(C)C)C(=O)O[C@H](C)C(=O)N(C)[C@@H](CC(C)C)C(=O)O[C@H](Cc2ccc(Cn3cnnn3)cc2)C(=O)N(C)[C@@H](CC(C)C)C(=O)O[C@H](C)C(=O)N1C` [Example 9-18, (3S,6R,9S,12R,15S,18R,21S,24R)-6,18-bis(4-((1H-tetrazol-1-yl)methyl)benzyl)-3,9,15,21-tetraisobutyl-4,10,12,16,22,24-hexamethyl-1,7,13,19-tetraoxa-4,10,16,22-tetraazacyclotetracosan-2,5,8,11,14,17,20,23-octaone] it was 0.01 to 0.1 µM; in that of `Cc1nn(Cc2ccc(C[C@H]3OC(=O)[C@H](CC(C)C)N(C)C(=O)[C@@H](C)OC(=O)[C@H](CC(C)C)N(C)C(=O)[C@@H](Cc4ccc(Cn5nc(C)c(C#N)c5C)cc4)OC(=O)[C@H](CC(C)C)N(C)C(=O)[C@@H](C)OC(=O)[C@H](CC(C)C)N(C)C3=O)cc2)c(C)c1C#N` [Example 1b-117, 1,1′-(((((2R,5S,8R,11S,14R,17S,20R,23S)-5,11,17,23-tetraisobutyl-4,8,10,16,20,22-hexamethyl-3,6,9,12,15,18,21,24-octaoxo-1,7,13,19-tetraoxa-4,10,16,22-tetraazacyclotetracosane-2,14-diyl)bis(methylene))bis(4,1-phenylene))bis(methylene))bis(3,5-dimethyl-1H-pyrazole-4-carbonitrile)], 0.01 to 0.1 µM; in that of `CC(=O)c1cnn(Cc2ccc(C[C@H]3OC(=O)[C@H](CC(C)C)N(C)C(=O)[C@@H](C)OC(=O)[C@H](CC(C)C)N(C)C(=O)[C@@H](Cc4ccc(Cn5cc(C(C)=O)cn5)cc4)OC(=O)[C@H](CC(C)C)N(C)C(=O)[C@@H](C)OC(=O)[C@H](CC(C)C)N(C)C3=O)cc2)c1` [Example 1b-38, (3S,6R,9S,12R,15S,18R,21S,24R)-6,18-bis(4-((4-acetyl-1H-pyrazol-1-yl)methyl)benzyl)-3,9,15,21-tetraisobutyl-4,10,12,16,22,24-hexamethyl-1,7,13,19-tetraoxa-4,10,16,22-tetraazacyclotetracosan-2,5,8,11,14,17,20,23-octaone], 0.01 to 0.1 µM.
Turning to `CC(C)C[C@H]1C(=O)O[C@H](Cc2ccc(CN3CCN(S(C)(=O)=O)CC3)cc2)C(=O)N(C)[C@@H](CC(C)C)C(=O)O[C@H](C)C(=O)N(C)[C@@H](CC(C)C)C(=O)O[C@H](Cc2ccccc2)C(=O)N(C)[C@@H](CC(C)C)C(=O)O[C@H](C)C(=O)N1C` [Example 10-10, (3S,6R,9S,12R,15S,18R,21S,24R)-6-benzyl-3,9,15,21-tetraisobutyl-4,10,12,16,22,24-hexamethyl-18-(4-((4-(methylsulfonyl)piperazin-1-yl)methyl)benzyl)-1,7,13,19-tetraoxa-4,10,16,22-tetraazacyclotetracosan-2,5,8,11,14,17,20,23-octaone], the minimal effective concentration was 0.01 to 0.1 µM.
As for `CC(C)C[C@H]1C(=O)O[C@H](Cc2ccc(Cn3cc(C4=CCCC4)cn3)cc2)C(=O)N(C)[C@@H](CC(C)C)C(=O)O[C@H](C)C(=O)N(C)[C@@H](CC(C)C)C(=O)O[C@H](Cc2ccccc2)C(=O)N(C)[C@@H](CC(C)C)C(=O)O[C@H](C)C(=O)N1C` [Example 2-61, (3S,6R,9S,12R,15S,18R,21S,24R)-6-benzyl-18-(4-((4-(cyclopent-1-en-1-yl)-1H-pyrazol-1-yl)methyl)benzyl)-3,9,15,21-tetraisobutyl-4,10,12,16,22,24-hexamethyl-1,7,13,19-tetraoxa-4,10,16,22-tetraazacyclotetracosan-2,5,8,11,14,17,20,23-octaone], the minimal effective concentration lay in the range of 0.01 to 0.1 µM.
Turning to `CC(C)C[C@H]1C(=O)O[C@H](Cc2ccc(Cn3ccc(Br)n3)cc2)C(=O)N(C)[C@@H](CC(C)C)C(=O)O[C@H](C)C(=O)N(C)[C@@H](CC(C)C)C(=O)O[C@H](Cc2ccccc2)C(=O)N(C)[C@@H](CC(C)C)C(=O)O[C@H](C)C(=O)N1C` [Example 2-57, (3S,6R,9S,12R,15S,18R,21S,24R)-6-benzyl-18-(4-((3-bromo-1H-pyrazol-1-yl)methyl)benzyl)-3,9,15,21-tetraisobutyl-4,10,12,16,22,24-hexamethyl-1,7,13,19-tetraoxa-4,10,16,22-tetraazacyclotetracosan-2,5,8,11,14,17,20,23-octaone], the minimal effective concentration was in the range of 0.01 to 0.1 µM.
With `CC(C)C[C@H]1C(=O)O[C@H](Cc2ccc(Cn3cc(C4CCOCC4)cn3)cc2)C(=O)N(C)[C@@H](CC(C)C)C(=O)O[C@H](C)C(=O)N(C)[C@@H](CC(C)C)C(=O)O[C@H](Cc2ccc(Cn3cc(C4CCOCC4)cn3)cc2)C(=O)N(C)[C@@H](CC(C)C)C(=O)O[C@H](C)C(=O)N1C` [Example 1b-116, (3S,6R,9S,12R,15S,18R,21S,24R)-3,9,15,21-tetraisobutyl-4,6,10,16,18,22-hexamethyl-12,24-bis(4-((4-(tetrahydro-2H-pyran-4-yl)-1H-pyrazol-1-yl)methyl)benzyl)-1,7,13,19-tetraoxa-4,10,16,22-tetraazacyclotetracosan-2,5,8,11,14,17,20,23-octaone], the minimal effective concentration lay within 0.01 to 0.1 µM.

Values taken from US11331369B2, “Endoparasitic depsipeptides” (Zoetis Services LLC, priority 2017, dated 2022).
